From patent publication US5064860A, “Method of inhibiting superoxide generation” (G. D. Searle & Co., priority 1990, dated 1991) come the findings set out here.

Test [1] relates to FMLP-stimulated human neutrophils. Description: Human neutrophil superoxide generation, FMLP-stimulated (cytochrome C reduction). The class given is cell-based. The note with it: for pIC50: read-out: Inhibition of FMLP Induced Superoxide IC50. The method, then:
Human neutropil suproxide generation: Superoxide generation by formyl-methionyl-leucyl-phenylalanine (FMLP)-stimulated neutrophils was quantitated by the reduction of cytochrome C (Badwey, J. A., Curnutte, J. T. and Karnovsky, M. L., cis-Polyunsaturated fatty acids induce high levels of superoxide production by human neutrophils. J. Biol. Chem. 256: 12640-12643, 1981.) To 5 million neutrophils in 2.85 ml of Krebs-Ringer phosphate buffer, pH 7.2, 50 μl of inhibitor (in 10% DMSO/buffer), and 50 ul ferricytochrome C (5 mM, stock) were added and preincubated for 3 minutes at 37° C. Absorption measurements at 550 nm were recorded at start of preincubation. Fifty ul FMLP (6 uM, stock) was added to initiate reaction. A plateau was reached within 3 minutes and this reading--initial reading (before addition of FMLP) was used to calculate nanomoles of superoxide generated based on a molar extinction coefficient of 2.1×10^4 cm^-1 mole^-1.
Isolation of human neutrophils: Human neutrophils were isolated from freshly drawn blood of healthy donors. Two ml of 5% dextran (MW 200,000-300,000) in saline was added to 10 ml aliquots of blood, mixed and placed upright for 45 min. at 37° C. Approx. 8-10 ml of the plasma-white cell suspension from the dextran sedimentation was layered on 3 ml of Ficol-paque in a ml tube and centrifuged at 400 g for 30 min. The supernate, containing plasma and platelets, was discarded by aspiration, and the pellet, containing predominantly neutrophils, was resuspended in 1 ml saline. The suspension was transferred to a clean tube, and pooled with other aliquots of blood treated similarly. The pooled suspension was centrifuged at 350 g for 5 min. and supernate discarded. The pellet was resuspended in 5 ml of 0.05% NaCl with a plastic Pasteur pipette for 25 seconds to lyse contaminating red cells, then 5 ml of 1.75% NaCl added to regain isotonicity. The red cell lysing procedure was repeated, the cells suspended in appropriate buffer (depending on assay) and counted.

A further test has as its target T1, 5-lipoxygenase (Rattus norvegicus, UniProt P12527).
T1 construct: Rat Basophilic Leukemia Cell Homogenate (RBL-1) serves as a 5-lipoxygenase enzyme source; endogenous in cells; host or cells: RBL-1 (rat basophilic leukemia) cells, 100,000×g supernatant of homogenate
T1 sequence (P12527 1-673): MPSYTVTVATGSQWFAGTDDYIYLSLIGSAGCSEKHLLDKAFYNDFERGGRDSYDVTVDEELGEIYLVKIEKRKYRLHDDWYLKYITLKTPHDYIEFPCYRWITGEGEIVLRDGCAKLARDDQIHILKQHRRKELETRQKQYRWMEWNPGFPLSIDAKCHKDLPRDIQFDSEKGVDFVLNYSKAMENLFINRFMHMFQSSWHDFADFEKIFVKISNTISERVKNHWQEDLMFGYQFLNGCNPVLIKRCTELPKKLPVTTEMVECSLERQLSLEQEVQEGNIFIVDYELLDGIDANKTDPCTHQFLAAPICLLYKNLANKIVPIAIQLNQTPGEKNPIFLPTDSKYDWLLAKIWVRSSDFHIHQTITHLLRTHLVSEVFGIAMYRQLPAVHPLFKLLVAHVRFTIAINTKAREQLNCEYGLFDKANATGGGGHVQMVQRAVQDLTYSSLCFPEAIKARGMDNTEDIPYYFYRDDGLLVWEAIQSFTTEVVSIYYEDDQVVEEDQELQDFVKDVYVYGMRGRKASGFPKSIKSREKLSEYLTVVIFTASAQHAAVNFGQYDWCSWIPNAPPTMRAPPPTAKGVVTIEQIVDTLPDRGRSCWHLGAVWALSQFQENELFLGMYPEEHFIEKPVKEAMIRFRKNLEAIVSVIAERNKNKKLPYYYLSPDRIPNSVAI
Description: Inhibition of 5-lipoxygenase, in vitro (5-HETE synthesis from [1-14C]-arachidonic acid, RBL-1 supernatant). The format is biochemical. The note with it: for pIC50: RBL-1 100,000×g supernatant. The method, then: Inhibition of 5-lipoxygenase, in vitro:
anti-inflammatory, anti-allergy activities.
The 100,000×g supernatant fraction of Rat Basophilic Leukemia Cell Homogenate (RBL-1) serves as a 5-lipoxygenase enzyme source. The enzyme is incubated with [1-^14 C)-arachidonic acid and Ca++ in the presence and absence of test compound. The product of 5-lipoxygenase, 5-hydroxyeicosatetraenoic acid (5-HETE), is separated by thin-layer chromatography and measured by radioactivity. A compound inhibiting 5-HETE synthesis by 30% or more is considered active at that concentration.

Setting [2] is: Neutrophil, human neutrophils, FMLP.

pIC50: −log10 of the molar value. “Also recorded” adds a separate entry of the source. Read-outs that look alike come from different tables or passages of the source.

For `C[C@H](Sc1cc(C(C)(C)C)c(O)c(C(C)(C)C)c1)[C@@H](C)OCC(=O)O` (relative stereo) [Example 9, 11, (±)[2S*-[[3,5-bis(1,1-dimethyl-ethyl)-4-hydroxyphenyl]thio]-1R*-methylpropoxy]acetic acid], the results for the pIC50 (in test [1] (setting [2]); at 5-lipoxygenase) were 4.96 and 5.31, respectively.
With `C[C@@H](OCC(=O)O)[C@H](C)[S+]([O-])c1cc(C(C)(C)C)c(O)c(C(C)(C)C)c1` (relative stereo) [Example 12, (±)[2S*-[[3,5-bis(1,1-dimethylethyl)-4-hydroxyphenyl]sulfinyl]-1R*- methylpropoxy]acetic acid], the pIC50 (as a rule, the IC50 on a negative log10 scale, so that one unit is a factor of ten) in test [1] (setting [2]) was approximately 4.30. Moreover, the inhibition – broadly, the change of the read-out against control, counted positive when it falls – at 100 µM on 5-lipoxygenase amounted to 12%.
For `C[C@@H](OCC(=O)O)[C@H](C)S(=O)(=O)c1cc(C(C)(C)C)c(O)c(C(C)(C)C)c1` (relative stereo) [Example 13, (±)[2S*-[[3,5-bis(1,1-dimethylethyl)-4-hydroxyphenyl]sulfonyl]-1R*- methylpropoxy]acetic acid], the pIC50 in test [1] (setting [2]) was approximately 4.52. At 5-lipoxygenase, this compound showed an inhibition at 100 µM of 4%.
For `C[C@H](Sc1cc(C(C)(C)C)c(O)c(C(C)(C)C)c1)[C@@H](C)OCC(=O)O` (single isomer, unassigned) [Example 17, (-)[2S*-[[3,5-bis(1,1-dimethylethyl)-4-hydroxyphenyl]thio]-1R*-methylpropoxy]acetic acid], the negative-log IC50 (pIC50) is 5.00 in test [1] (human neutrophils, FMLP) and 5.37 against 5-lipoxygenase.
As to `C[C@H](Sc1cc(C(C)(C)C)c(O)c(C(C)(C)C)c1)[C@@H](C)OCC(=O)O` (single isomer, unassigned) [Example 18, (+)[2S*-[[3,5-bis(1,1-dimethylethyl)-4-hydroxyphenyl]thio]-1R*-methylpropoxy]acetic acid], the values for the pIC50 (in test [1] (setting [2]); at 5-lipoxygenase) were 5.00 and 5.46, respectively.
In the same order, the values of `CC(C)(C)c1cc(SCCSCC(=O)O)cc(C(C)(C)C)c1O` [Example 4, 5, [[2-[[3,5-bis(1,1-dimethylethyl)-4-hydroxyphenyl]thio]ethyl]thio]aceticacid] are 5.30 and 5.48.
With `CN(CCc1ccccn1)C(=O)CCSc1cc(C(C)(C)C)c(O)c(C(C)(C)C)c1` [Formula IV, reference compound], the activation at 5 µM in test [1] (Homo sapiens, Neutrophil, at 5 μm, read-out: increase in superoxide generated by neutrophils) amounted to 50%. Further, the activation at 10 µM in test [1] (Homo sapiens, Neutrophil, at 10 μm, read-out: increase in superoxide generated by neutrophils) amounted to 227%. Also, the “FMLP Induced Superoxide, result in words” value in test [1] (human neutrophils, FMLP) was “Stimulates; also recorded: did not inhibit superoxide generation”. Further, at 5-lipoxygenase, the “5-lipoxygenase inhibition, result in words” value is on record as “inhibited 5-lipoxygenase” and the negative-log IC50 (pIC50) was 6.49.
